Measured values from patent US8952157B2, “Apoptosis-inducing agents for the treatment of cancer and immune and autoimmune diseases” (AbbVie Inc., priority 2008, dated 2015).
Like-named read-outs stand apart in the source and are kept apart here.

Molecular target: GST-Bcl-2 (Homo sapiens (Human), UniProt P10415)
Experiment: Time Resolved-Fluorescence Resonance Energy Transfer (TR-FRET) Bcl-2 binding assay
In short: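 Ki values derived from TR-FRET displacement of F-Bak peptide from GST-Bcl-2, detected with Tb-labelled anti-GST antibody (ex 340, em 520/495 nm). Compound dilution series started at 50 μM (2× starting concentration); room-temperature incubation 3 hours.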

[1] = GST-Bcl-2 1 nM, F-Bak peptide probe 100 nM, Tb-anti-GST antibody 1 nM, Ki by Wang's equation

Sequence of GST-Bcl-2 (P10415 whole entry): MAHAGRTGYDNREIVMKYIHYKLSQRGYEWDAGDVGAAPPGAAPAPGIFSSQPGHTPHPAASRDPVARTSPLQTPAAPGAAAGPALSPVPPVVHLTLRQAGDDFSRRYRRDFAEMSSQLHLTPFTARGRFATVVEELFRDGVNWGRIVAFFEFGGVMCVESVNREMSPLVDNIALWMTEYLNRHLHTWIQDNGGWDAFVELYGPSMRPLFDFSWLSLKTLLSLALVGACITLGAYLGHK

## CC1(C)CCC(CN2CCN(c3ccc(C(=O)NS(=O)(=O)c4ccc(NCC5CCOCC5)c([N+](=O)[O-])c4)c(Oc4ccc(NC(=O)OC(C)(C)C)nc4)c3)CC2)=C(c2ccc(Cl)cc2)C1 [Example 270, tert-butyl 5-(5-(4-{[2-(4-chlorophenyl)-4,4-dimethylcyclohex-1-en-1-yl]methyl}piperazin-1-yl)-2-{[({3-nitro-4-[(tetrahydro-2H-pyran-4-ylmethyl)amino]phenyl}sulfonyl)amino]carbonyl}phenoxy)pyridin-2-ylcarbamate]
[1]
  Ki: > 1200 nM

## Cc1nc2cc(Oc3cc(N4CCN(Cc5ccccc5-c5ccc(Cl)cc5)CC4)ccc3C(=O)NS(=O)(=O)c3ccc(NCCCN(C)C)c([N+](=O)[O-])c3)ccc2s1 [Example 25, 4-(4-((4′-chloro-1,1′-biphenyl-2-yl)methyl)piperazin-1-yl)-N-((4-((3-(dimethylamino)propyl)amino)-3-nitrophenyl)sulfonyl)-2-((2-methyl-1,3-benzothiazol-5-yl)oxy)benzamide]
[1]
  Ki: 1.5 nM

## CC1(C)CCC(CN2CCN(c3ccc(C(=O)NS(=O)(=O)c4ccc(NC5CCN(C6CCCC6)CC5)c([N+](=O)[O-])c4)c(Oc4cccc(F)c4F)c3)CC2)=C(c2ccc(Cl)cc2)C1 [Example 133, 4-(4-{[2-(4-chlorophenyl)-4,4-dimethylcyclohex-1-en-1-yl]methyl}piperazin-1-yl)-N-({4-[(1-cyclopentylpiperidin-4-yl)amino]-3-nitrophenyl}sulfonyl)-2-(2,3-difluorophenoxy)benzamide]
[1]
  Ki: 0.055 nM

## O=C(NS(=O)(=O)c1ccc(NCCCN2CCOCC2)c([N+](=O)[O-])c1)c1ccc(N2CCN(Cc3ccccc3-c3ccc(Cl)cc3)CC2)cc1Oc1cccc(Cl)c1 [Example 12, 4-(4-((4′-chloro-1,1′-biphenyl-2-yl)methyl)piperazin-1-yl)-2-(3-chlorophenoxy)-N-((4-((3-morpholin-4-ylpropyl)amino)-3-nitrophenyl)sulfonyl)benzamide]
[1]
  Ki: 0.331 nM

## CC1(C)CCC(CN2CCN(c3ccc(C(=O)NS(=O)(=O)c4ccc(NCC5CCOCC5)c([N+](=O)[O-])c4)c(Oc4ccc(OCc5ccccc5)nc4)c3)CC2)=C(c2ccc(Cl)cc2)C1 [Example 284, 2-{[6-(benzyloxy)pyridin-3-yl]oxy}-4-(4-{[2-(4-chlorophenyl)-4,4-dimethylcyclohex-1-en-1-yl]methyl}piperazin-1-yl)-N-({3-nitro-4-[(tetrahydro-2H-pyran-4-ylmethyl)amino]phenyl}sulfonyl)benzamide]
[1]
  Ki: 79.3 nM

## CC1(C)CCC(CN2CCN(c3ccc(C(=O)NS(=O)(=O)c4ccc(NC5CCN(C6CCOCC6)CC5)c([N+](=O)[O-])c4)c(Oc4cccc(F)c4Cl)c3)CC2)=C(c2ccc(Cl)cc2)C1 [Example 178, 2-(2-chloro-3-fluorophenoxy)-4-(4-{[2-(4-chlorophenyl)-4,4-dimethylcyclohex-1-en-1-yl]methyl}piperazin-1-yl)-N-({3-nitro-4-[(1-tetrahydro-2H-pyran-4-ylpiperidin-4-yl)amino]phenyl}sulfonyl)benzamide]
[1]
  Ki: 0.175 nM

## CNc1cccc(Oc2cc(N3CCN(Cc4ccccc4-c4ccc(Cl)cc4)CC3)ccc2C(=O)NS(=O)(=O)c2ccc(NCC3CCOCC3)c([N+](=O)[O-])c2)c1 [Example 2, 4-(4-((4′-chloro-1,1′-biphenyl-2-yl)methyl)piperazin-1-yl)-2-(3-(methylamino)phenoxy)-N-((3-nitro-4-((tetrahydro-2H-pyran-4-ylmethyl)amino)phenyl)sulfonyl)benzamide]
[1]
  Ki: 31.5 nM

## CC1(C)CCC(CN2CCN(c3ccc(C(=O)NS(=O)(=O)c4cnc(OCC5(F)CCOCC5)c(Cl)c4)c(Oc4cnc(N)c(Cl)c4)c3)CC2)=C(c2ccc(Cl)cc2)C1 [Example 349, 2-[(6-amino-5-chloropyridin-3-yl)oxy]-N-({5-chloro-6-[(4-fluorotetrahydro-2H-pyran-4-yl)methoxy]pyridin-3-yl}sulfonyl)-4-(4-{[2-(4-chlorophenyl)-4,4-dimethylcyclohex-1-en-1-yl]methyl}piperazin-1-yl)benzamide]
[1]
  Ki: 0.019 nM

## CC1(C)CCC(CN2CCN(c3ccc(C(=O)NS(=O)(=O)c4ccc(NCCCN5CCOCC5)c([N+](=O)[O-])c4)c(Oc4ccc(N)c(Cl)c4)c3)CC2)=C(c2ccc(Cl)cc2)C1 [Example 52, 2-(4-amino-3-chlorophenoxy)-4-(4-((2-(4-chlorophenyl)-4,4-dimethylcyclohex-1-en-1-yl)methyl)piperazin-1-yl)-N-((4-((3-morpholin-4-ylpropyl)amino)-3-nitrophenyl)sulfonyl)benzamide]
[1]
  Ki: 0.072 nM

## CC1(C)CCC(CN2CCN(c3ccc(C(=O)NS(=O)(=O)c4ccc(NCCCN5CCOCC5)c([N+](=O)[O-])c4)c(Oc4ccc(F)cc4Cl)c3)CC2)=C(c2ccc(Cl)cc2)C1 [Example 120, 2-(2-chloro-4-fluorophenoxy)-4-(4-{[2-(4-chlorophenyl)-4,4-dimethylcyclohex-1-en-1-yl]methyl}piperazin-1-yl)-N-({4-[(3-morpholin-4-ylpropyl)amino]-3-nitrophenyl}sulfonyl)benzamide]
[1]
  Ki: 0.214 nM

## CC1(C)CCC(CN2CCN(c3ccc(C(=O)NS(=O)(=O)c4ccc(NCC5CCOCC5)c([N+](=O)[O-])c4)c(Oc4cc(Br)nc(NC(=O)OC(C)(C)C)c4)c3)CC2)=C(c2ccc(Cl)cc2)C1 [Example 372, tert-butyl 6-bromo-4-(5-(4-{[2-(4-chlorophenyl)-4,4-dimethylcyclohex-1-en-1-yl]methyl}piperazin-1-yl)-2-{[({3-nitro-4-[(tetrahydro-2H-pyran-4-ylmethyl)amino]phenyl}sulfonyl)amino]carbonyl}phenoxy)pyridin-2-ylcarbamate]
[1]
  Ki: 15 nM

## Cc1n[nH]c2cccc(Oc3cc(N4CCN(CC5=C(c6ccc(Cl)cc6)CC(C)(C)CC5)CC4)ccc3C(=O)NS(=O)(=O)c3ccc(NCCCN4CCOCC4)c([N+](=O)[O-])c3)c12 [Example 44, 4-(4-((2-(4-chlorophenyl)-4,4-dimethylcyclohex-1-en-1-yl)methyl)piperazin-1-yl)-2-((3-methyl-1H-indazol-4-yl)oxy)-N-((4-((3-morpholin-4-ylpropyl)amino)-3-nitrophenyl)sulfonyl)benzamide]
[1]
  Ki: 0.036 nM

## CC(C)c1cc(Oc2cc(N3CCN(CC4=C(c5ccc(Cl)cc5)CC(C)(C)CC4)CC3)ccc2C(=O)NS(=O)(=O)c2ccc(NCC3CCOCC3)c([N+](=O)[O-])c2)cnc1N [Example 365, 2-[(6-amino-5-isopropylpyridin-3-yl)oxy]-4-(4-{[2-(4-chlorophenyl)-4,4-dimethylcyclohex-1-en-1-yl]methyl}piperazin-1-yl)-N-({3-nitro-4-[(tetrahydro-2H-pyran-4-ylmethyl)amino]phenyl}sulfonyl)benzamide]
[1]
  Ki: 4.55 nM

## Cn1c(=O)[nH]c2cccc(Oc3cc(N4CCN(CC5=C(c6ccc(Cl)cc6)CC(C)(C)CC5)CC4)ccc3C(=O)NS(=O)(=O)c3ccc(NCC4CCOCC4)c([N+](=O)[O-])c3)c21 [Example 368, 4-(4-{[2-(4-chlorophenyl)-4,4-dimethylcyclohex-1-en-1-yl]methyl}piperazin-1-yl)-2-[(3-methyl-2-oxo-2,3-dihydro-1H-benzimidazol-4-yl)oxy]-N-({3-nitro-4-[(tetrahydro-2H-pyran-4-ylmethyl)amino]phenyl}sulfonyl)benzamide]
[1]
  Ki: < 0.01 nM

## CC1(C)CCC(CN2CCN(c3ccc(C(=O)NS(=O)(=O)c4ccc(NCC5(F)CCOCC5)c([N+](=O)[O-])c4)c(Oc4cc5cc[nH]c5cc4F)c3)CC2)=C(c2ccc(Cl)cc2)C1 [Example 337, 4-(4-{[2-(4-chlorophenyl)-4,4-dimethylcyclohex-1-en-1-yl]methyl}piperazin-1-yl)-2-[(6-fluoro-1H-indol-5-yl)oxy]-N-[(4-{[(4-fluorotetrahydro-2H-pyran-4-yl)methyl]amino}-3-nitrophenyl)sulfonyl]benzamide]
[1]
  Ki: 0.049 nM

## CC1(C)CCC(CN2CCN(c3ccc(C(=O)NS(=O)(=O)c4ccc(N[C@H]5CC[C@H](N6CCOCC6)CC5)c([N+](=O)[O-])c4)c(Oc4cccc5c4CC(=O)N5)c3)CC2)=C(c2ccc(Cl)cc2)C1 [Example 320, Trans-4-(4-{[2-(4-chlorophenyl)-4,4-dimethylcyclohex-1-en-1-yl]methyl}piperazin-1-yl)-N-({4-[(4-morpholin-4-ylcyclohexyl)amino]-3-nitrophenyl}sulfonyl)-2-[(2-oxo-2,3-dihydro-1H-indol-4-yl)oxy]benzamide]
  Ki: 0.028 nM

## CN1CCC(Nc2ccc(S(=O)(=O)NC(=O)c3ccc(N4CCN(CC5=C(c6ccc(Cl)cc6)CC(C)(C)CC5)CC4)cc3Oc3ccccc3F)cc2[N+](=O)[O-])CC1 [Example 122, 4-(4-{[2-(4-chlorophenyl)-4,4-dimethylcyclohex-1-en-1-yl]methyl}piperazin-1-yl)-2-(2-fluorophenoxy)-N-({4-[(1-methylpiperidin-4-yl)amino]-3-nitrophenyl}sulfonyl)benzamide]
[1]
  Ki: < 0.001 nM

## CC1(C)CCC(CN2CCN(c3ccc(C(=O)NS(=O)(=O)c4ccc(NCCCN5CCOCC5)c([N+](=O)[O-])c4)c(Oc4ccccc4F)c3)CC2)=C(c2ccc(Cl)cc2)C1 [Example 125, 4-(4-{[2-(4-chlorophenyl)-4,4-dimethylcyclohex-1-en-1-yl]methyl}piperazin-1-yl)-2-(2-fluorophenoxy)-N-({4-[(3-morpholin-4-ylpropyl)amino]-3-nitrophenyl}sulfonyl)benzamide]
[1]
  Ki: 0.075 nM

## O=C1CCc2c(cccc2Oc2cc(N3CCN(Cc4ccccc4-c4ccc(Cl)cc4)CC3)ccc2C(=O)NS(=O)(=O)c2ccc(NCC3CCOCC3)c([N+](=O)[O-])c2)N1 [Example 95, 4-(4-((4′-chloro-1,1′-biphenyl-2-yl)methyl)piperazin-1-yl)-N-((3-nitro-4-((tetrahydro-2H-pyran-4-ylmethyl)amino)phenyl)sulfonyl)-2-((2-oxo-1,2,3,4-tetrahydroquinolin-5-yl)oxy)benzamide]
[1]
  Ki: 0.428 nM
